Source: patent US7160732B2, “Fluorescein-based metal sensors, and methods of making and using the same” (Massachusetts Institute of Technology, priority 2000, dated 2007)
Blank lines part the entries; values can stand above or below the compound they belong to.

How the values were obtained:
[1] = pH dependent fluorescence (apparent fluorescence pKa); type: physicochemical
Method: The apparent fluorescence pKa was measured by plotting the integrated area of the emission spectrum against the pH recorded from pH=12.5–2.5. A 1 μM solution of the ligand of Formula 16 (10 mLs) containing ˜1 mM KOH and 100 mM KCl was adjusted to pH 12.5 and the UV-vis and fluorescence spectra were recorded. The pH was lowered in steps of ΔpH=0.5 with the addition of appropriate amounts of 6 N, 2 N, 0.5 N, 1 N, 0.1 N and 0.01 N HCl recording the absorption and emission spectra at each pH interval. The volume of the solution was controlled so the overall change in volume was <2%. Emission for the fluorescein-based ligand of […] was integrated from 500 to 700 nm. The resulting integrated emission areas were normalized, plotted against pH, and fit with the following nonlinear equation to calculate the pKa values. In the equation, ΔF1max and ΔF2max are the maximum fluorescence changes associated with the corresponding pKa values at the pH at which the maximum occurs.
The fluorescence of the Formula 16 ligand is enhanced by protons. […] At high pH, the magnitude of Zn^2+-induced fluorescent enhancement is more dramatic, increasing over 200-fold at pH 12.

[2] = Fluorescence response to other metal ions
Method: (§1) Fluorescence spectra were recorded on a Hitachi F-3010 spectrofluorimeter under the control of a Pentium-based PC running the SpectraCalc software package. Excitation was provided by a 150 W Xe lamp (Ushio Inc.) operating at a current of 5 A. All spectra were normalized for excitation intensity via a rhodamine quantum counter, and emission spectra were normalized by the manufacturer-supplied correction curves. Spectra were routinely acquired at 25° C., maintained by a circulating water bath in 1 cm×1 cm quartz cuvettes using 3 nm slit widths and a 240 nm/min scan speed. Fluorescence emission measurements were also acquired in a 1 cm×1 cm quartz cell using a Spex Fluorolog-2 instrument with 1 nm bandwidth slits. All spectra were corrected for emission intensity using the manufacturer-supplied photomultiplier curves. Spectra were routinely acquired at 25° C., maintained by a circulating water bath.
(§2) Under pseudo physiological conditions (50 mM PIPES, 100 mM KCl) at pH 7 in the presence of EDTA to scavenge advantageous metal ions, Formula 16 has a quantum yield of 0.25. The quantum yield increases to 0.92 in the presence of 25 μM Zn^2+. The excitation maximum of Formula 16 shifts from 498 nm (ε=36.8×10^3 M^−1cm^−1) to 490 nm (ε=44.9×10^3 M^−1cm^−1) upon Zn^2+ complexation. The slight hypsochromatic shift in the absorption wavelength is indicative of the coordination of the donor group (phenol) to Zn^2+. Since the phenol is incorporated in the π-system of the fluorophore, coordination to a metal would be expected to perturb the electronic structure of the system and produce a shift in the excitation wavelength. […] Under most conditions, cadmium concentrations are much lower than zinc concentrations in biological samples.

[3] = Quantum yield of fluorescence, metal free and Zn^2+ bound ligand; type: physicochemical; conditions: 50 mM PIPES, 100 mM KCl
From the text: Quantum yield, Φ, may be obtained by comparison of the integrated area of the corrected emission spectrum of the sample with that of a reference solution. A preferred reference solution is a solution of fluorescein in 0.1 N NaOH, quantum efficiency 0.95. The concentration of the reference is adjusted to match the absorbance, Abs, of the test sample. The quantum yields may be calculated using the following equation: […]
The quantum yields of fluorescence were obtained by comparison of the integrated area of the corrected emission spectrum of the sample with that of a solution of fluorescein in 0.1 N NaOH, quantum efficiency 0.95. The concentration of the reference was adjusted to match the absorbance of the test sample. The quantum efficiency of the metal free ligand was measured using dilute sample of Formula 16 dye (˜1×10^−6 M, Abs≦0.1) in 10 mM PIPES, 100 mM KCl and 50 μM EDTA, pH=7.0. The quantum efficiency of the metal bound ligand was measured using a dilute sample of Formula 16 (˜8×10^−7 M, Abs≦0.1) in 10 mM PIPES, 100 mM KCl and 100 μM ZnCl2, pH=7.0. Emission for Formula 16 was integrated from 496 to 600 nm with excitation at 492 nm. The quantum yields were calculated with the following equation.
as §2

[4] = tested on: intracellular Zn^2+ in HeLa cells; assay: Detection of intracellular Zn^2+ by fluorescence microscopy; type: cell-based
Method: (§3) The ability of a fluorescein-based ligand of Formula 16 to act as a sensor for intracellular Zn^2+ was tested in COS-7 (FIG. 5) and HeLa cells (FIG. 6), using a Formula 16. Both cell types were treated with 5 μM of the fluorescein-based ligand of Formula 16 for one hour at 37° C. […] Similar observations have been made using quinoline-based Zn^2+ probes in undifferentiated mammalian cells.
(§4) Intracellular Zn^2+ concentrations were increased by incubating the cells with Zn^2+ in the presence of pyrithione, a Zn^2+ ionophore. […] Available Zn^2+ was decreased by treatment with the membrane permeable Zn^2+-chelator, TPEN.

[5] = tested on: intracellular Zn^2+ in COS-7 cells; assay: as above; type: cell-based
Method: as §3, §4

[6] = Fluorescence Zn^2+ binding titration (Kd) in Ca^2+/EDTA/Zn^2+ buffers; conditions: 1 mM EDTA, 2 mM Ca^2+, 0–1 mM total Zn^2+
Method: The first Kd associated with Zn^2+ binding was measured by a fluorescence titration as described previously. Spectra of the fluorescence of the ligand of Formula 16 were acquired by exciting at 490 nm and collecting and integrating from 500–575 nm. The measurements were performed in triplicate to ensure accuracy of the Kd value.
(§5) The fluorescent increase and binding affinity for Zn^2+ were characterized using a dual-metal single-ligand buffer system comprised of 1 mM EDTA, 2 mM Ca^2+ (or Mg^2+ up to 5 mM) and 0–1 mM total Zn^2+. […] The quantum yield of Formula 16 increases by ˜3.7-fold, and the integrated emission increases 6.0-fold.
(§6) The Zn^2+ affinity of Formula 16 was determined by performing these measurements in triplicate using different Ca^2+/EDTA/Zn^2+ buffers (FIG. 3, left panel). The fluorescence response of the ligand of Formula 16 to the solutions was measured by excitation of the solution at 490 nm with 0.25 nm slit width and detecting the emission over 500 to 575 nm. The buffer solutions contained 100 mM KCl, 50 mM PIPES, pH=7.2 mM Ca2+, 1 mM EDTA and varying free Zn2+concentrations of 0, 0.172, 0.424, 0.787, 1.32, 2.11, 3.34, 5.60, 10.2, and 24.1 nM. […] The fluorescence response fits to a Hill coefficient of 1, consistent with the formation of a 1:1 ligand:Zn^2+ complex responsible for the enhancement.

[7] = Absorption titration, second Zn^2+ binding event (Kd2); conditions: physiologically relevant pH
Method: (§7) Absorption spectra were recorded on a Hewlett Packard 8453A diode array spectrophotometer under the control of a Pentium II-based PC running the Windows NT ChemStation software package, or a Cary 1E scanning spectrophotometer under the control of a Pentium PC running the manufacturer supplied software package. Spectra were routinely acquired at 25° C., maintained by a circulating water bath in 1 cm path length quartz cuvettes with a volume of 1.0 or 3.5 mL.
The binding of Zn^2+ by a fluorescein-based ligand of Formula 16 is accompanied by changes in the absortion spectra. […] Addition of greater than one equivalent of Zn^2+ produces small changes in the absorption spectra of the ligand. The change fits to a Kd2 of 10±2 μM (486 nm), and decreases to 7.5±2.5 μM (508 nm).

[8] = Lactone formation under aqueous conditions; type: physicochemical; conditions: even at high [Zn^2+] (200 μM)
Method: Binding of the first Zn^2+ more efficiently interrupts the PET process and increases the band gap between the S0 and S1 energy levels. The Kd1 is lower than that of DPA because of the additional coordination by the phenolic oxygen. […] (200 μM). These conclusions are preliminary and are not intended to limit the scope of the invention in any way.

[9] = Fluorescence response to Zn^2+
Method: as §1, with “bath. […]” for “bath.”
The fluorescence of the Formula 16 ligand is enhanced by protons. […]
Under pseudo physiological conditions (50 mM PIPES, 100 mM KCl) at pH 7 in the presence of EDTA to scavenge advantageous metal ions, Formula 57 has a quantum yield of 0.06. […] The fluorescence of Formula 57 also appears to be pH dependent. These fluorescence results are preliminary and are not intended to limit the scope of the invention in any way.

[10] = Excitation maximum and extinction coefficient, free and upon Zn^2+ complexation; type: physicochemical; conditions: pH 7
Method: as §7, §2

[11] = Zn^2+ affinity of reference chelator complexes; type: binding; conditions: pH 7
Method: as §5
as §6, with “nM. The measurements indicate that Formula 16 has a Kd of 0.5±0.1 nM (mean ±esd), obtained by a hyperbolic fit to the plot of the area under each fluorescence peak versus the Zn2+ concentration at which it was measured (FIG. 3, right panel).” for “nM.”

[12] = fit of integrated emission versus pH, 100 mM KCl
[13] = pH 7, in the presence of EDTA (metal free)

pH of maximum fluorescence [1]: ~5.5 | apparent pKa,1 [1, 12]: 3.9 | apparent pKa,2 [1, 12]: 9.4 | fluorescence at high pH ([1]; pH>12): almost completely quenched | quantum yield ([3]; pH 7, in the presence of 25 μM Zn^2+): 0.92 | quantum yield [3, 13]: 0.25 | increase of integrated emission on Zn^2+ binding [6]: 6.0 fold | increase of quantum yield on Zn^2+ binding [6]: ~3.7 fold | lactone formation [8]: no lactone formation | excitation maximum ([10]; before Zn^2+ complexation): 498 nm | ε at excitation maximum ([10]; before Zn^2+ complexation): 36800 M⁻¹ cm⁻¹ | excitation maximum ([10]; upon Zn^2+ complexation): 490 nm | ε at excitation maximum ([10]; upon Zn^2+ complexation): 44900 M⁻¹ cm⁻¹
SMILES: O=C1OC2(c3ccccc31)c1ccc(O)c(CN(Cc3ccccn3)Cc3ccccn3)c1Oc1c2ccc(O)c1CN(Cc1ccccn1)Cc1ccccn1 [Formula 16]
change in fluorescence intensity ([2]; Ca^2+): no measurable change in intensity | effect on fluorescence ([2]; Cd^2+): increase in fluorescence | effect on fluorescence ([2]; Co^2+): quench fluorescence | effect on fluorescence ([2]; Cu^2+): quench fluorescence | effect on fluorescence ([2]; Fe^2+): quench fluorescence | change in fluorescence intensity ([2]; Mg^2+): no measurable change in intensity | effect on fluorescence ([2]; Mn^2+): quench fluorescence | effect on fluorescence ([2]; Ni^2+): quench fluorescence | fluorescent staining of cells ([4]; 5 μM ligand, one hour at 37° C.): bright fluorescent staining | fluorescent signal after Zn^2+ chelation ([4]; TPEN): decreased the fluorescent signal | fluorescent signal after raising intracellular Zn^2+ ([4]; Zn^2+ with pyrithione): increase in the fluorescent signal | fluorescent staining of cells ([5]; 5 μM ligand, one hour at 37° C., particularly perinuclear region (Golgi)): bright fluorescent staining | fluorescent signal after Zn^2+ chelation ([5]; TPEN): decreased the fluorescent signal | fluorescent signal after raising intracellular Zn^2+ ([5]; Zn^2+ with pyrithione): increase in the fluorescent signal | fluorescence change at the second binding event [7]: not associated with a measurable change in fluorescence | selectivity of the fluorescence response ([9]; compared with other metal ions): Zn^2+ selective | Zn^2+-induced fluorescent enhancement ([9]; pH 12): over 200 fold

quantum yield [3, 13]: 0.39 | quantum yield ([3]; pH 7, in the presence of Zn^2+ (concentration not given)): 0.87 | excitation maximum ([10]; upon Zn^2+ complexation): 507 nm | ε at excitation maximum ([10]; upon Zn^2+ complexation): 84000 M⁻¹ cm⁻¹
SMILES: O=C1OC2(c3ccccc31)c1cc(Cl)c(O)c(CN(Cc3ccccn3)Cc3ccccn3)c1Oc1c2cc(Cl)c(O)c1CN(Cc1ccccn1)Cc1ccccn1 [Formula 31]

SMILES: [Zn+2].c1ccc(CNCc2ccccn2)nc1 [[Zn(DPA)]^2+]
weaker binding than the ligand of Formula 16 [11]: approximately 2 orders of magnitude
